US20020086278A1, “CHROMOGENIC MEDIA CONTAINING BLOOD OR HEMIN” (priority 1999, published 2002)
Where two headings read alike, the source gives them in different places.

Experiments:
[1] = test system: Pseudomonas aeruginosa (psae); test: Example 3: colony color on chromogenic TSA II with 5% sheep blood (chromogen in medium); assay type: cell-based; details: for Colony Color: CO2, 21 h
Group B Strep. 12386 = test: Example 1: growth and colony color on plates surface-spread with chromogen; assay type: cell-based; details: for Growth: Group B Strep 12386
E. faecium (enfu) = test: Example 3: colony color on chromogenic TSA II with 5% sheep blood (chromogen in medium); assay type: cell-based
[2] = test system: Gardnerella vaginalis 14019; test: Example 1: growth and colony color on plates surface-spread with chromogen; assay type: cell-based; details: Summary of Table I; G. vaginalis 14014
Escherichia coli 25922 = test: as above; assay type: cell-based; details: E. coli 25922
[3] = test system: Branhamella catarrhalis (brca); test: Example 3: colony color on chromogenic TSA II with 5% sheep blood (chromogen in medium); assay type: cell-based; details: for Colony Color: CO2, 21 h
cakr 34135 = test: as above; assay type: cell-based; details: CO2, 21 h
[4] = test system: Staphylococcus aureus (stau); test: as above; assay type: cell-based
milu 9341 = test: as above; assay type: cell-based; details: CO2, 21 h
[5] = test system: Entercoccus faecalis (enfa); test: as above; assay type: cell-based
[6] = test system: Aeromonas hydrophilia (aehy); test: as above; assay type: cell-based; details: for Colony Color: CO2, 21 h
[7] = test system: Serratia marcescens (sema); test: as above; assay type: cell-based
S pyogenes (stpy) = test: as above; assay type: cell-based; details: for Colony Color: 21 h
E. coli 25922 = test: Example 2: effect of incubation conditions on colony color formation; assay type: cell-based, Escherichia coli; details: 0.004 g/plate
S. milleri (stmi) = test: Example 3: colony color on chromogenic TSA II with 5% sheep blood (chromogen in medium); assay type: cell-based; details: for Colony Color: stmi 6249, 21 h
[8] = test system: Streptococcus agalactiae (stag); test: as above; assay type: cell-based
Candida albicans (caal) = test: as above; assay type: cell-based; details: for Colony Color: caal 10231, 24 h
[9] = test system: Streptococcus pneumoniae 6303; test: Example 1: growth and colony color on plates surface-spread with chromogen; assay type: cell-based; details: TSA II 5SB; S. pneu: 6303
[10] = test system: E. coli (non-O157) (esco); assay type: cell-based
[11] = test system: Klebsiella pneumoniae (klpn); test: Example 3: colony color on chromogenic TSA II with 5% sheep blood (chromogen in medium); assay type: cell-based; details: for Colony Color: CO2, 21 h
S. pneumoniae (stpn) = test: as above; assay type: cell-based
Salmonella spp. (sasp) = assay type: cell-based; details: for Colony Color: CO2, 21 h
[12] = chromogenic TSA II with 5% Sheep Blood, 0.1 g/l, 3 strains tested
[13] = chromogenic TSA II with 5% Sheep Blood, 0.1 g/l, 1 strain tested
[14] = chromogenic TSA II with 5% Sheep Blood, 0.1 g/l, 2 strains tested
[15] = chromogenic TSA II with 5% Sheep Blood, 0.1 g/l, 6 strains tested

OC[C@H]1O[C@@H](Oc2c[nH]c3ccc(Br)c(Cl)c23)[C@H](O)[C@@H](O)[C@H]1O [X-Gal, 5-Br-4-Cl-3-indolyl-β-D-galactopyranoside]
lgb: Colony Color ([5]; enfa 10741, air, 21 h) | Colony Color ([5]; enfa 14506, CO2, 21 h)
blue: Color (Escherichia coli 25922; Choc II) | Color (Escherichia coli 25922; TSA II 5SB) | Color (Escherichia coli 25922; TSA Plain)
+: Colony Color (Summary) (E. faecium (enfu); [13]) | Colony Color (Summary) [7, 13] | Colony Color (Summary) [10, 12] | Colony Color (Summary) [11, 12]
X-Gal: Substrates Producing Growth Inhibition [2] | Substrates Producing Color (Escherichia coli 25922; Summary of Table I)
light blue: Color [9]
blue (d): Colony Color (E. coli 25922; Chocolate II Agar, 24 h, air) | Colony Color (E. coli 25922; TSA II 5% Sheep Blood, 24 h, air) | Colony Color (E. coli 25922; TSA II 5% Sheep Blood, 5 d, ANA) | Colony Color (E. coli 25922; TSA II 5% Sheep Blood, 5 d, MA)
Slight inhib. w/ X-: Substrates Producing Growth Inhibition (Group B Strep. 12386; Summary of Table I, Group B Strep. 12386)
dark blue: Colony Color (E. faecium (enfu); E. faecium (ATCC 49032))
gb: Colony Color (E. faecium (enfu); enfu 49032, CO2, 21 h) | Colony Color ([5]; enfa 10741, CO2, 21 h) | Colony Color ([5]; enfa 29212, CO2, 21 h) | Colony Color ([5]; enfa 29212, air, 21 h) | Colony Color ([6]; aehy 7965) | Colony Color ([6]; aehy 7966) | Colony Color ([6]; aehy 49847) | Colony Color ([7]; sema 13880, CO2, 21 h) | Colony Color ([10]; esco 33605, CO2, 21 h) | Colony Color ([11]; klpn 13883) | Colony Color ([11]; klpn 33606)
<: Growth (Group B Strep. 12386; TSA II 5SB) | Growth (Group B Strep. 12386; TSA Plain)
vlgb: Colony Color ([5]; enfa 29212, CO2, 24 h) | Colony Color ([5]; enfa 29212, air, 24 h)
db: Colony Color (E. faecium (enfu); enfu 49032, air, 21 h)
0: Colony Color (Summary) [1, 12] | Colony Color ([1]; psae 9027) | Colony Color ([1]; psae 15442) | Colony Color ([1]; psae 33607) | Colony Color ([3]; brca 25238) | Colony Color ([3]; brca 25240) | Colony Color (Summary) [3, 14] | Colony Color (cakr 34135) | Colony Color (Summary) ([4]; chromogenic TSA II with 5% Sheep Blood, 0.1 g/l, 5 strains tested) | Colony Color ([4]; stau 1006, CO2, 21 h) | Colony Color ([4]; stau 1007, CO2, 21 h) | Colony Color ([4]; stau 1008, CO2, 21 h) | Colony Color ([4]; stau 1009, CO2, 21 h) | Colony Color ([4]; stau 25923, CO2, 24 h) | Colony Color ([4]; stau 25923, air, 24 h) | Colony Color (milu 9341) | Colony Color ([5]; enfa 597, CO2, 21 h) | Colony Color ([5]; enfa 597, air, 21 h) | Colony Color ([5]; enfa 12953, CO2, 21 h) | Colony Color ([5]; enfa 12953, air, 21 h) | Colony Color ([5]; enfa 14506, air, 21 h) | Colony Color (Summary) [6, 12] | Colony Color (Summary) (S pyogenes (stpy); [15]) | Colony Color (S pyogenes (stpy); stpy 1027, CO2) | Colony Color (S pyogenes (stpy); stpy 1028, CO2) | Colony Color (S pyogenes (stpy); stpy 1029, CO2) | Colony Color (S pyogenes (stpy); stpy 1030, CO2) | Colony Color (S pyogenes (stpy); stpy 19615, CO2) | Colony Color (S pyogenes (stpy); stpy 19615, air) | Colony Color (S pyogenes (stpy); stpy 49117, CO2) | Colony Color (S pyogenes (stpy); stpy 49117, air) | Colony Color (S pyogenes (stpy); stpy 51339, CO2) | Colony Color (S pyogenes (stpy); stpy 51339, air) | Colony Color (Summary) (S. milleri (stmi); [14]) | Colony Color (S. milleri (stmi); CO2) | Colony Color (S. milleri (stmi); air) | Colony Color (Summary) [8, 12] | Colony Color ([8]; stag 4768, CO2, 21 h) | Colony Color ([8]; stag 4768, air, 21 h) | Colony Color ([8]; stag 12386, CO2, 21 h) | Colony Color ([8]; stag 12386, CO2, 24 h) | Colony Color ([8]; stag 12386, air, 24 h) | Colony Color (Candida albicans (caal); CO2) | Colony Color (Candida albicans (caal); air) | Colony Color (Summary) (Candida albicans (caal); [14]) | Colony Color (Summary) (S. pneumoniae (stpn); [15]) | Colony Color (S. pneumoniae (stpn); stpn 1259, CO2, 21 h) | Colony Color (S. pneumoniae (stpn); stpn 1260, CO2, 21 h) | Colony Color (S. pneumoniae (stpn); stpn 1628, CO2, 21 h) | Colony Color (S. pneumoniae (stpn); stpn 6303, CO2, 24 h) | Colony Color (S. pneumoniae (stpn); stpn 6303, air, 24 h) | Colony Color (S. pneumoniae (stpn); stpn 6305, CO2, 24 h) | Colony Color (S. pneumoniae (stpn); stpn 6305, air, 24 h) | Colony Color (Summary) (Salmonella spp. (sasp); [14]) | Colony Color (Salmonella spp. (sasp); saty 19430) | Colony Color (Salmonella spp. (sasp); satym 14028)
